Laboratory results from US9738634B2, “Heterocyclic amide compound and herbicide” (SYNGENTA PARTICIPATIONS AG, priority 2013, dated 2017).

Experiments:
Format in all cases: in vivo
[1] = tested on: green foxtail; assay: Test Example 4: weedkilling efficacy by foliar treatment; E: green foxtail; details: treatment dosage 315 g/ha
How it was run: (§1)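 Seeds are spot-sown into sterilized diluvial soil and covered with about 1.5 cm of soil. After 14 days' greenhouse growth at 25 to 30° C, plants are sprayed on stems and leaves with diluted emulsion at the stated g/ha rate, then scored at 3 weeks.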

[2] = tested on: soybean; assay: Test Example 3: soil treatment, effect on crop; d: soybean; details: treatment dosage 315 g/ha
How it was run: (§2)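 Crop and weed responses were judged three weeks after a uniform surface spray of the water-diluted emulsion at the given g/ha rate. Seeds sat beneath about 1.5 cm of sterilized diluvial soil, and boxes stood in a greenhouse at 25 to 30° C.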

[3] = tested on: Italian ryegrass; assay: Test Example 3: weedkilling efficacy through soil treatment; I: Italian ryegrass; details: treatment dosage 315 g/ha
How it was run: as §2

[4] = tested on: chickweed; assay: Test Example 4: weedkilling efficacy by foliar treatment; N: chickweed; details: treatment dosage 315 g/ha
How it was run: as §1

[5] = tested on: transplanted rice; assay: Test Example 1: preemergent weed treatment in the submerged state, effect on crop; a: transplanted rice; details: treatment dosage 252 g/ha
How it was run: (§3)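 Visual scores against set criteria were taken 3 weeks after treatment. Compounds, as diluted emulsions at specified g/ha, went onto the water surface of 4 cm-flooded alluvial soil pots on the day weeds were sown and 2.5-leaf rice was transplanted; greenhouse held 25–30 °C.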

[6] = tested on: redroot pigweed; assay: Test Example 4: weedkilling efficacy by foliar treatment; L: redroot pigweed; details: treatment dosage 315 g/ha
How it was run: as §1

[7] = tested on: catchweed; assay: Test Example 4: weedkilling efficacy by foliar treatment; O: catchweed; details: treatment dosage 315 g/ha
How it was run: as §1

[8] = tested on: wild oat; assay: Test Example 3: weedkilling efficacy through soil treatment; G: wild oat; details: treatment dosage 315 g/ha
How it was run: as §2

[9] = tested on: oval-leafed pondweed; assay: Test Example 2: weedkilling efficacy, growth period weed treatment in the submerged state; C: oval-leafed pondweed; details: treatment dosage 252 g/ha
How it was run: (§4)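 Barnyard grass, bulrush and oval-leafed pondweed sown in alluvial soil under 4 cm flooding, greenhouse 25 to 30° C. At 1-2 leaf stage, water-diluted emulsion applied to the water surface at stated g/ha dosages; effects scored 3 weeks later.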

[10] = tested on: beet; assay: Test Example 4: foliar treatment, effect on crop; f: beet; details: treatment dosage 315 g/ha
How it was run: as §1

[11] = tested on: fig-leafed goosefoot; assay: Test Example 3: weedkilling efficacy through soil treatment; M: fig-leafed goosefoot; details: treatment dosage 315 g/ha
How it was run: as §2

[12] = tested on: beet; assay: Test Example 3: soil treatment, effect on crop; f: beet; details: treatment dosage 315 g/ha
How it was run: as §2

[13] = tested on: Indian mallow; assay: Test Example 4: weedkilling efficacy by foliar treatment; K: Indian mallow; details: treatment dosage 315 g/ha
How it was run: as §1

[14] = tested on: black-grass; assay: Test Example 4: weedkilling efficacy by foliar treatment; H: black-grass; details: treatment dosage 315 g/ha
How it was run: as §1

[15] = tested on: bulrush; assay: Test Example 1: weedkilling efficacy, preemergent weed treatment in the submerged state; B: bulrush; details: treatment dosage 252 g/ha
How it was run: as §3

[16] = tested on: chickweed; assay: Test Example 3: weedkilling efficacy through soil treatment; N: chickweed; details: treatment dosage 315 g/ha
How it was run: as §2

[17] = tested on: corn; assay: Test Example 4: foliar treatment, effect on crop; c: corn; details: treatment dosage 315 g/ha
How it was run: as §1

[18] = tested on: directly sown rice; assay: Test Example 4: foliar treatment, effect on crop; b: directly sown rice; details: treatment dosage 315 g/ha
How it was run: as §1

[19] = tested on: Italian ryegrass; assay: Test Example 4: weedkilling efficacy by foliar treatment; I: Italian ryegrass; details: treatment dosage 315 g/ha
How it was run: as §1

[20] = tested on: barnyard grass; assay: Test Example 1: weedkilling efficacy, preemergent weed treatment in the submerged state; A: barnyard grass; details: treatment dosage 252 g/ha
How it was run: as §3

[21] = tested on: wheat; assay: Test Example 3: soil treatment, effect on crop; e: wheat; details: treatment dosage 315 g/ha
How it was run: as §2

[22] = tested on: green foxtail; assay: Test Example 3: weedkilling efficacy through soil treatment; E: green foxtail; details: treatment dosage 315 g/ha
How it was run: as §2

[23] = tested on: redroot pigweed; assay: Test Example 3: weedkilling efficacy through soil treatment; L: redroot pigweed; details: treatment dosage 315 g/ha
How it was run: as §2

[24] = tested on: wheat; assay: Test Example 4: foliar treatment, effect on crop; e: wheat; details: treatment dosage 315 g/ha
How it was run: as §1

[25] = tested on: crabgrass; assay: Test Example 3: weedkilling efficacy through soil treatment; D: crabgrass; details: treatment dosage 315 g/ha
How it was run: as §2

[26] = tested on: birds-eye speedwell; assay: Test Example 4: weedkilling efficacy by foliar treatment; p: birds-eye speedwell; details: treatment dosage 315 g/ha
How it was run: as §1

[27] = tested on: wild oat; assay: Test Example 4: weedkilling efficacy by foliar treatment; G: wild oat; details: treatment dosage 315 g/ha
How it was run: as §1

[28] = tested on: black-grass; assay: Test Example 3: weedkilling efficacy through soil treatment; H: black-grass; details: treatment dosage 315 g/ha
How it was run: as §2

[29] = tested on: soybean; assay: Test Example 4: foliar treatment, effect on crop; d: soybean; details: treatment dosage 315 g/ha
How it was run: as §1

[30] = tested on: corn; assay: Test Example 3: soil treatment, effect on crop; c: corn; details: treatment dosage 315 g/ha
How it was run: as §2

[31] = tested on: crabgrass; assay: Test Example 4: weedkilling efficacy by foliar treatment; D: crabgrass; details: treatment dosage 315 g/ha
How it was run: as §1

[32] = tested on: Indian mallow; assay: Test Example 3: weedkilling efficacy through soil treatment; K: Indian mallow; details: treatment dosage 315 g/ha
How it was run: as §2

[33] = tested on: barnyard grass; assay: Test Example 2: weedkilling efficacy, growth period weed treatment in the submerged state; A: barnyard grass; details: treatment dosage 252 g/ha
How it was run: as §4

[34] = tested on: oval-leafed pondweed; assay: Test Example 1: weedkilling efficacy, preemergent weed treatment in the submerged state; C: oval-leafed pondweed; details: treatment dosage 252 g/ha
How it was run: as §3

[35] = tested on: bulrush; assay: Test Example 2: weedkilling efficacy, growth period weed treatment in the submerged state; B: bulrush; details: treatment dosage 252 g/ha
How it was run: as §4

[36] = tested on: fig-leafed goosefoot; assay: Test Example 4: weedkilling efficacy by foliar treatment; M: fig-leafed goosefoot; details: treatment dosage 315 g/ha
How it was run: as §1

CC1=C(c2ccccc2)C(=O)N(C(C)(C)C(=O)Nc2cncc(Cl)c2)CO1 [B-3-02]
E (green foxtail) weedkilling efficacy grade [1]: 5 (weed kill ratio 90% or more, (practically complete withering)) | d (soybean) effect on crop grade [2]: 0 (weed kill ratio 5% or less (practically no effect)) | I (Italian ryegrass) weedkilling efficacy grade [3]: 5 (weed kill ratio 90% or more, (practically complete withering)) | N (chickweed) weedkilling efficacy grade [4]: 0 (weed kill ratio 5% or less (practically no effect)) | a (transplanted rice) effect on crop grade [5]: 3 (weed kill ratio 40% or more, less than 70%) | L (redroot pigweed) weedkilling efficacy grade [6]: 3 (weed kill ratio 40% or more, less than 70%) | O (catchweed) weedkilling efficacy grade [7]: 4 (weed kill ratio 70% or more, less than 90%) | G (wild oat) weedkilling efficacy grade [8]: 5 (weed kill ratio 90% or more, (practically complete withering)) | C (oval-leafed pondweed) weedkilling efficacy grade [9]: 5 (weed kill ratio 90% or more, (practically complete withering)) | f (beet) effect on crop grade [10]: 3 (weed kill ratio 40% or more, less than 70%) | M (fig-leafed goosefoot) weedkilling efficacy grade [11]: 4 (weed kill ratio 70% or more, less than 90%) | f (beet) effect on crop grade [12]: 4 (weed kill ratio 70% or more, less than 90%) | K (Indian mallow) weedkilling efficacy grade [13]: 4 (weed kill ratio 70% or more, less than 90%) | H (black-grass) weedkilling efficacy grade [14]: 5 (weed kill ratio 90% or more, (practically complete withering)) | B (bulrush) weedkilling efficacy grade [15]: 5 (weed kill ratio 90% or more, (practically complete withering)) | N (chickweed) weedkilling efficacy grade [16]: 4 (weed kill ratio 70% or more, less than 90%) | c (corn) effect on crop grade [17]: 4 (weed kill ratio 70% or more, less than 90%) | b (directly sown rice) effect on crop grade [18]: 5 (weed kill ratio 90% or more, (practically complete withering)) | I (Italian ryegrass) weedkilling efficacy grade [19]: 5 (weed kill ratio 90% or more, (practically complete withering)) | A (barnyard grass) weedkilling efficacy grade [20]: 5 (weed kill ratio 90% or more, (practically complete withering)) | e (wheat) effect on crop grade [21]: 5 (weed kill ratio 90% or more, (practically complete withering)) | E (green foxtail) weedkilling efficacy grade [22]: 5 (weed kill ratio 90% or more, (practically complete withering)) | L (redroot pigweed) weedkilling efficacy grade [23]: 5 (weed kill ratio 90% or more, (practically complete withering)) | e (wheat) effect on crop grade [24]: 3 (weed kill ratio 40% or more, less than 70%) | D (crabgrass) weedkilling efficacy grade [25]: 5 (weed kill ratio 90% or more, (practically complete withering)) | P (birds-eye speedwell) weedkilling efficacy grade [26]: 3 (weed kill ratio 40% or more, less than 70%) | G (wild oat) weedkilling efficacy grade [27]: 5 (weed kill ratio 90% or more, (practically complete withering)) | H (black-grass) weedkilling efficacy grade [28]: 5 (weed kill ratio 90% or more, (practically complete withering)) | d (soybean) effect on crop grade [29]: 4 (weed kill ratio 70% or more, less than 90%) | c (corn) effect on crop grade [30]: 3 (weed kill ratio 40% or more, less than 70%) | D (crabgrass) weedkilling efficacy grade [31]: 5 (weed kill ratio 90% or more, (practically complete withering)) | K (Indian mallow) weedkilling efficacy grade [32]: 3 (weed kill ratio 40% or more, less than 70%) | A (barnyard grass) weedkilling efficacy grade [33]: 4 (weed kill ratio 70% or more, less than 90%) | C (oval-leafed pondweed) weedkilling efficacy grade [34]: 5 (weed kill ratio 90% or more, (practically complete withering)) | B (bulrush) weedkilling efficacy grade [35]: 5 (weed kill ratio 90% or more, (practically complete withering)) | M (fig-leafed goosefoot) weedkilling efficacy grade [36]: 2 (weed kill ratio 20% or more, less than 40%)
